Experimental data as given in patent publication US9056862B2, “Thioxothiazolidine derivative having Ras function inhibitory effect” (NATIONAL UNIVERSITY CORPORATION KOBE UNIVERSITY, priority 2011, dated 2015).

Tests used:
Ras-Raf binding = molecular target: T1, Ras-Raf binding; experiment: In vitro binding assay: Ras-Raf binding inhibition (GST-Raf on resin, GTPγ[35S]-labeled Ras, scintillation counting); conditions: GST-Raf fusion protein on resin, radioactive Ras, compound dissolved in 10% DMSO
T1 construct: fused on or other part: GST tag on Ras was cleaved off with PreScission protease before the test
Method: • 1) A fusion protein of Raf (target protein of Ras) and GST (glutathione S-transferase) was expressed in Escherichia coli using GST fusion protein expression vector (pGEX-6P-1 vector (GE Healthcare)). The expressed GST-Raf fusion protein was immobilized on an affinity carrier for purification (glutathione Sepharose 4B: resin (GE Healthcare)). • 2) Radioisotope-labeled Ras
GTPγ[^35S] (Perkin Elmer), which is one of the GTP analogs, was added to Ras in which GST tag was cleaved using GST fusion protein cleavage protease (PreScission protease (GE Healthcare)) to prepare radioisotope-labeled Ras. • 3) Measurement of Ras-Raf binding inhibition activity
GST-Raf fusion protein immobilized on the resin in the above-mentioned 1) and the radioactive Ras prepared in the above-mentioned 2) were incubated in the presence of various concentrations of a compound dissolved in 10% DMSO to promote the binding reaction between Ras and Raf. The resin in the reaction solution was washed, and then, the complex of GST-Raf fusion protein and radioactive Ras was eluted by adding glutathione. The binding activity between Ras and Raf was measured by scintillation counting of the radioactivity of the eluate. Thus, the Ras-Raf binding inhibition activity by addition of various compounds was evaluated.

[1] = system: human colorectal cancer cell line, SW480, which has active form of K-Ras; experiment: In vivo assay: tumor growth inhibition in SW480 xenograft in nude mice; conditions: 80 mg/kg orally once a day, five consecutive days per week, after three-week administration; SW480 subcutaneous in female nude mice; control group = 100%
Method: A cell suspension (about 2×10^6 cells) of human colorectal cancer cell line, SW480, which has active form of K-Ras, was subcutaneously inoculated and implanted with a syringe at the right flank of 6 to 8-week-old nude mice (female). After a tumor grew to the grossly recognizable size (40-100 mm^3), a compound (80 mg/kg) dissolved in a solvent (Cremophor EL:Ethanol:Water=1:1:6) was orally administered once a day for five consecutive days per week. This is considered as the compound administration group. A solvent alone was administered to control group in the same manner. After the compound administration started, tumor volumes of both the groups were measured twice a week. Tumor growth inhibition rates were calculated by comparing tumor volumes of control group (100%) and those of compound administration group after three-week administration to evaluate anticancer activity of a compound. The tumor growth inhibition rates in the case of orally administering compounds of the present invention at 80 mg/Kg are shown in the following Table 7.

With O=C1/C(=C/c2ccccc2Oc2ccccc2)SC(=S)N1NC1=NS(=O)(=O)c2ccccc21 [Example 13] the IC50 (Ras-Raf binding) was 100 µM and the “tumor growth inhibition rate (%)” value [1] was 70%.
For O=C1/C(=C/c2ccc(Br)cc2)SC(=S)N1NC1=NS(=O)(=O)c2ccccc21 [Example 6], the IC50 (Ras-Raf binding) was 400 µM and the “tumor growth inhibition rate (%)” value [1] was 85%.
O=C1/C(=C/c2cccc(Oc3ccccc3)c2)SC(=S)N1NC1=NS(=O)(=O)c2ccccc21 [Example 12] was tested, and the IC50 (Ras-Raf binding) was 50 µM and the “tumor growth inhibition rate (%)” value [1] was 86%.
In the case of O=C1/C(=C/c2ccc([N+](=O)[O-])cc2[N+](=O)[O-])SC(=S)N1NC1=NS(=O)(=O)c2ccccc21 [Example 7], the IC50 (Ras-Raf binding) is reported as 200 µM and the “tumor growth inhibition rate (%)” value [1] is reported as 85%.
With O=C1/C(=C/c2ccccc2OCCOc2ccccc2)SC(=S)N1NC1=NS(=O)(=O)c2ccccc21 [Example 53] the IC50 (Ras-Raf binding) was 160 µM.
In the case of CC(C)(C)OC(=O)NCCOc1cccc(C=C2SC(=S)N(NC3=NS(=O)(=O)c4ccccc43)C2=O)c1 [Example 167, 3-[(4-Oxo-5-(3-(2-t-butoxycarbonylaminoethyloxy)benzylidene)-2-thioxothiazolidin-3-yl)amino]-1,2-benzothiazole 1,1-dioxide], the IC50 (Ras-Raf binding) is reported as 360 µM.
In the case of O=C1/C(=C/c2ccccc2OCCOc2ccc([N+](=O)[O-])cc2)SC(=S)N1NC1=NS(=O)(=O)c2ccccc21 [Example 56], the IC50 (Ras-Raf binding) is reported as 90 µM and the “tumor growth inhibition rate (%)” value [1] is reported as 62%.
Compound Cc1ccc(OCCOc2ccccc2/C=C2\SC(=S)N(NC3=NS(=O)(=O)c4ccccc43)C2=O)cc1 [Example 55] has an IC50 (Ras-Raf binding) of 100 µM.
For O=C1/C(=C/c2ccc(OCc3ccccc3)cc2)SC(=S)N1NC1=NS(=O)(=O)c2ccccc21 [Example 16], the IC50 (Ras-Raf binding) was 100 µM and the “tumor growth inhibition rate (%)” value [1] was 69%.
O=C1/C(=C/c2ccc(Oc3ccccc3)cc2)SC(=S)N1NC1=NS(=O)(=O)c2ccccc21 [Example 1, 3-[(4-oxo-5-(4-phenoxybenzylidene)-2-thioxothiazolidin-3-yl)amino]-1,2-benzisothiazole 1,1-dioxide] was tested, and the IC50 (Ras-Raf binding) was 70 µM and the “tumor growth inhibition rate (%)” value [1] was 88%.
